Patent publication US20160220569A1, “CDK4/6 Inhibitor Dosage Formulations For The Protection Of Hematopoietic Stem And Progenitor Cells During Chemotherapy” (G1 Therapeutics, Inc., priority 2015, published 2016)

Tested on: NCI-H69 mice small cell lung cancer (SCLC) xenograft
Experiment: NCI-H69 small cell lung cancer xenograft study
Assay type: in vivo
Excerpt: FIG. 61 is a graph of tumor size (cubic millimeters) vs time (days) for a small cell lung cancer xenograft model with various dosing regimens.

CN1CCN(c2ccc(Nc3ncc4cc5n(c4n3)C3(CCCCC3)CNC5=O)nc2)CC1 [Compound 1, 2′-((5-(4-methylpiperazin-1-yl)pyridin-2-yl)amino)-7′,8′-dihydro-6′H-spiro[cyclohexane-1,9′-pyrazino[1′,2′:1,5]pyrrolo[2,3-d]pyrimidin]-6′-one]
tumor growth suppression (Compound 1 100 mg/kg qdx5dx4, absence of Topotecan): did not have tumor grown suppression | tumor suppression vs Topotecan alone (Compound 1 10, 50 or 100 mg/kg with Topotecan 0.6 mg/kg): significantly higher level of tumor suppression
